# Reference: US20180311340A1, “NEW ADJUVANT AND VACCINE COMPOSITION CONTAINING THE SAME” (priority 2015, published 2018)
# “Also recorded” adds a separate entry of the source.
# Assays:
# PCSK9 antigenic peptide = assay: Immunogenicity study of PCSK9 vaccine; humoral response by ELISA; assay type: in vivo, mice; details: beta-sitosterol used along with alum; statement on Table 6
# Description: The results are measured in ELISA units.
# PCSK9 vaccine was prepared as described in WIPO publication WO 2011/027257. Here, ‘VR_9.5’ as decribed in WO 2011/027257 has been used as PCSK9 peptide for the current experiment. Other disclosed PCSK9 peptide can also be used as PCSK9 construct. The prepared PCSK9 construct was conjugated with diphtheria toxoid as an immunogenic carrier. The said preparation was used as an antigen preparation for further study. The conjugated PCSK9 antigen was formulated with alum and beta-sitosterol. […] Blood samples were collected at day 63 for the analysis of humoral response by ELISA. Humoral response analysed by ELISA is shown in below table. […] Table 6 provided here below for the results obtained by ELISA.
# [1] = tested on: Influenza A/Singapore/6/86(H1N1); assay: Immunogenicity study of influenza virosome with flavonoids; humoral response by ELISA; assay type: in vivo; details: Balb/c mice, subcutaneous, 1 μg Influenza A virosome with 1 or 10 μg adjuvant, day 0 and 21, blood after 35 days; compared to other analysed flavonoids and virosomes without adjuvant
smiles,measurement,setting,value
CC[C@H](CC[C@@H](C)[C@H]1CC[C@H]2[C@@H]3CC=C4C[C@@H](O)CC[C@]4(C)[C@H]3CC[C@]12C)C(C)C [beta-sitosterol],immune response against PCSK9 antigenic peptide,PCSK9 antigenic peptide,higher immune response; also recorded: synergistic effect
same,"immune response (serum titers of total IgG, IgG2a and IgG1 antibody, FIG. 1-3)",[1],higher immune response
